Experimental data taken from patent US20180360090A1, “NUTRITIONAL COMPOSITIONS AND INFANT FORMULAS TO PROMOTE MYELINATION IN THE BRAIN” (NESTEC S.A., priority 2015, published 2018).

Tested on: brain myelination (myelin water fraction)
Assay: Cross-sectional correlation analysis (GLM) of infant formula nutrient composition against brain myelination, measured as MWF by mcDESPOT MRI
Type: in vivo, human
Details: for nutritional drivers for myelination (final general linear model): children up to 5 years fed different infant formulas during infancy, voxel-wise correlations, p<0.05 corrected
Experimental: MRI brain scans of infants and children between 0 and 5 years were acquired using a white matter imaging technique. This technique provides a quantitative measure, the Myelin Water Fraction (MWF), which is a surrogate marker of myelin content. When mapped as a function of time across early childhood, myelination trajectories can be generated.
Infant formula composition: six infant formulas fed to infants participating in study were analyzed for their composition/level of myelin-relevant nutrients.
Infants included in this study were drawn from a larger longitudinal study of normal brain and behavioral development: the Brown university Assessment of Myelination and Behavior Across Maturation (BAMBAM). To focus on neurotypical development, children with known potential risk factors for learning, neurologic, or psychiatric disorders were specifically excluded during recruitment and enrollment. Thus, children with in utero alcohol or illicit substance exposure, premature (<37 weeks gestation) or multiple birth, fetal ultrasound abnormalities, complicated pregnancy (e.g., preeclampsia), APGAR scores <8, NICU admission, neurological disorder (e.g., head injury, epilepsy), psychiatric or developmental disorders in the infant, parents or siblings (including maternal depression requiring medication) were excluded. Ongoing screenings, such as the MCAT for autism, or CBCL for behavioral problems, were further used to remove enrolled children with clinically concerning behaviors or overt medical conditions (such as autism spectrum disorders).
A combination of retrospective and prospective data were acquired from parents via detailed medical histories and parental interview on type of infant formula used, percentage of breastfeeding to formula feeding, and length of exclusive breastfeeding. This information was updated at each study visit, which occurred approximately every 6 months for children under 2 years, and yearly for older children. Using this information, children were categorized into one of 2 groups: #1. Exclusively formula-fed; and #2. Exclusively breastfed for at least 90 days (3 months). Children who were fed a combination of breastmilk and formula within 3 months were excluded from our analysis. Infants within the exclusively formula-fed group were further sub-divided based on parental reports of the main infant formula used throughout the first 3 months. Main formula was defined as that given 90% of the time or more (in the case were parents used an alternate brand during vacation, for example).
Using these criteria, 94 exclusively formula-fed infants and young children were selected into group #1. These included 13 children who received formula #2; 28 who received formula #5; 8 who received formula #3; 39 who received formula #4; 5 who received formula #1 and 1 who received formula #6. A sample of 52 exclusively breast-fed infants were also selected and matched to the over formula-fed group with regards to mean age, gestation duration, birth weight, male:female ratio, ethnicity ratio, maternal education, family size, and number of languages spoken in the home (in addition to English).
Each infant was scanned using the mcDESPOT (multicomponent Driven Equilibrium Single Pulse Observation of T1 and T2) white matter imaging technique Deoni et al. (Magn. Reson. Med. 2008, 60:1372-1387), which provides a quantitative measure of the myelin water fraction (MWF) at each imaging point throughout the brain. All infants were scanned during natural (i.e. non-sedated) sleep using acoustically-muffled mcDESPOT imaging protocols. Total imaging times ranged from 19 minutes for the youngest toddlers to 24 minutes for the older 4 year-old children.
All data were acquired on a Siemens 3T Tim Trio scanner equipped with a 12 channel head RF array.

Compound	nutritional drivers for myelination (final general linear model)	association with myelination (myelin water fraction) over time in the brain (children up to 5 years fed different infant formulas, in particular in the visual cortex)
[P] [Phosphorus]	identified drivers	–
C[N+](C)(C)CCO [Choline]	identified drivers	–
Vitamin B12	identified drivers	–
Iron	identified drivers	–
[Mg] [Magnesium]	identified drivers	–
[Ca] [Calcium]	identified drivers	–
Zinc	identified drivers	–
sphingomyelin	identified drivers	–
CCCCC/C=C\C/C=C\C/C=C\C/C=C\CCCC(=O)O [ARA, arachidonic acid]	–	significant association with myelination
